Data as given in patent US10583119B2, “Compounds, compositions and methods for making the same” (Signum Biosciences, Inc., priority 2008, dated 2020).

Experiments:
Ob/Ob Mice = assay: Non-fasted glucose levels in ob/ob mice; assay type: in vivo
Description: They are also hypometabolic and hypothermic. The obesity is characterized by an increase in both the number and the size of adipocytes. Although hyperphagia contributes to the obesity, homozygotes gain excess weight and deposit excess fat even when restricted to a diet sufficient for normal weight maintenance in lean mice. Mice heterozygous for the Lep^ob mutation appear like wild-type and are lean.
Forty-eight (48) B6.V-Lep^ob/J mice (00632, The Jackson Laboratory, JAX^6 mice), homozygous for the Lep^ob mutation and thirty six (36) controls B6.V-Lep^ob/J-lean, heterozygous for the Lep^ob mutation were used to study the effect of SIG1012 on non-fasted glucose levels. The mice were ear notched for identification and housed in individually and positively ventilated polycarbonate cages with HEPA filtered air at a density of 3 mice per cage. Bed-o-cob corn cob bedding was used and cages were changed every two weeks. The animal room was lighted entirely with artificial fluorescent lighting, with a controlled 12 h light/dark cycle (7 am to 7 pm light). The normal temperature and relative humidity ranges in the animal rooms were 22±4° C. and 50±15%, respectively. The animal rooms were set to have 15 air exchanges per hour. Filtered tap water, acidified to a pH of 2.8 to 3.2, and LabDiet AIN-76A was provided ad libitum.
Following acclimation, mice were assigned to groups A through G according to their body weight and genotype:
A Lean heterozygotes—B6.V-Lep^ob/J-lean Mice Fed Control Diet (AIN-76A);
B Lean heterozygotes—B6.V-Lep^ob/J-lean Mice Fed “Low” Compound I-63 (AIN-76A with 0.001% Compound I-63);
C Lean heterozygotes—B6.V-Lep^ob/J-lean Mice Fed “Medium” Compound I-63 (AIN-76A with 0.1% Compound I-63);
D Obese homozygotes—B6. V-Lep^ob/J Mice Fed Control Diet (AIN-76A);
E Obese homozygotes—B6N-Lep^ob/J Mice Fed “Low” Compound I-63 (AIN-76A with 0.001% Compound I-63); […]
Mice from Groups A through G were maintained on the respective diet for 14 days and blood glucose levels were measured weekly.

[1] = molecular target: T1, protein phosphatase 2A specific methyltransferase (MTase) (Homo sapiens, UniProt Q9UIC8); assay: PP2A methylation in 96-well plate format (methyltransferase activity); assay type: biochemical; settings: purified PP2A, MTase and [3H]-SAM; read-out: MT (IC50)
T1 construct: His; made in house
T1 sequence (Q9UIC8 whole entry): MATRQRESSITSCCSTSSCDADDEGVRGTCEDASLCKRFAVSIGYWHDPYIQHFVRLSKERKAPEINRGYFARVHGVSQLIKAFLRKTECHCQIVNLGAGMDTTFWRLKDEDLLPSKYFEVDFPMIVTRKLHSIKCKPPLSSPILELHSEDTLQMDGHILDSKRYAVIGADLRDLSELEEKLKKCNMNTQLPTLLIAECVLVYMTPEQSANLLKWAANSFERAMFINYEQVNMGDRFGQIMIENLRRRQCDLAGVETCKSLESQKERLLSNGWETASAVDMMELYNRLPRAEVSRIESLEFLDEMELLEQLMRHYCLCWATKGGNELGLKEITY
Procedure: Purified PP2A, MTase and [^3H]-SAM, were incubated in reaction buffer at 37° C. At the end of the reaction, mixture was added onto the membranes of 96-well filter plate (Multiscreen™, Millipore). The membranes were then pre-wetted with 70% ethanol (50 μL/well) and then subsequently washed with water (2×200 μL/well). The reaction in each well was terminated and the proteins (5 μL-20 μL) were precipitated by adding 25% ice-cold TCA. The plate was kept on ice for 30 minutes to ensure completion of protein precipitation. Excess of the free SAM was then removed by washing with 5% cold TCA ([…]) and 70% cold ethanol (2×100 μL/well). Membranes were air-dried, radioactivity in each well was counted by TopCount^NXT scintillation counter (Packard) with 25 μL/well of Microsinct™ 20 (PerkinElmer).

JNPL3 transgenic mice = assay: Motor functions of JNPL3 transgenic mice (composite neuroscore); assay type: in vivo; settings: 0.1% diet
Procedure: The JNPL3 transgenic mouse line that carries the transgene for the human P301 L mutation of the microtubule-associated protein tau gene (MAPT) was used in this experiment (Lewis et al., 2000). 9-12 weeks old homozygous JNPL3 males (Laconic Farms, Hudson, N.Y.) were housed under standard conditions (temperature 22±2° C.; relative humidity 50±10%; 12 h light/12 h dark cycle) and allowed to acclimatize for 2 weeks. Following acclimatization, two groups of animals (6 animals per group) are changed to control diet (Research Diets; New Brunswick, N.J.) or purified 0.1% Compound I-63 formulated diet. The composite neuroscore (NS) was used as the scoring system to measure the following tasks: (1) forelimb flexion response during suspension by the tail, (2) righting and postural reflexes, and (3) prehensile traction test (Yoshiyama et al., 2005; Korenova et al., 2009). The neurological and motor examination included the basic reflex response by special attention to the assessment of the hind-limb escape extension reflex, the righting and postural reflexes and the prehensile traction test where the animal is allowed to grasp with its forepaws a horizontal cotton string (1 mm in diameter) suspended 70 cm above a padded surface. The scoring conditions were graded as follows:
2—Animal maintained forelimbs in scissored, clasped or dystonic position
Postural and Righting Reflex:
0—Animal could right when placed supine
1—Animal righting slowed (>ls)
Prehensile Traction Test:
0—Animal could complete test with at least 3 paws and tail within 2 min
1—Animal could hold on to string without falling within 2 min
2—Animal fell before 2 min without completion
3—Animal was unable to perform test
Each animal was scored using a scaling system ranging from 0-12 (normal), 13-20 (mild or early), 21-23 (moderate) and 24-30 (severe) to reflect serious impairment of neuromuscular functionality and muscular weakness. […]
Motor test scores vs. weeks of mice fed control diet (closed circles) and 0.1% Compound I-63 formulated diet (open circles). […]

PP2A = molecular target: T2, PP2A (Homo sapiens, UniProt P67775); assay: Phosphatase activity of PP2A using pNPP as substrate; assay type: biochemical; settings: un-methylated PP2A, non-protein substrate pNPP, absence of ME and MT
T2 construct: made in house
T2 sequence (P67775 whole entry): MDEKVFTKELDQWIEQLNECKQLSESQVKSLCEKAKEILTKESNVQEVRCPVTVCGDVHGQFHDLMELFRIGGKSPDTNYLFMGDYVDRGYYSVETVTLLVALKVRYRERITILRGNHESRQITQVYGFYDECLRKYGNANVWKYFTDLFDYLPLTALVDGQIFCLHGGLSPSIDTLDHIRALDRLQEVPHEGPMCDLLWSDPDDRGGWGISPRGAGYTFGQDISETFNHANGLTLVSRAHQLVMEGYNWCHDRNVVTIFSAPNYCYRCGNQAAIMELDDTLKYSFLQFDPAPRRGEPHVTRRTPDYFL
T2 sequence (P30153 whole entry partner): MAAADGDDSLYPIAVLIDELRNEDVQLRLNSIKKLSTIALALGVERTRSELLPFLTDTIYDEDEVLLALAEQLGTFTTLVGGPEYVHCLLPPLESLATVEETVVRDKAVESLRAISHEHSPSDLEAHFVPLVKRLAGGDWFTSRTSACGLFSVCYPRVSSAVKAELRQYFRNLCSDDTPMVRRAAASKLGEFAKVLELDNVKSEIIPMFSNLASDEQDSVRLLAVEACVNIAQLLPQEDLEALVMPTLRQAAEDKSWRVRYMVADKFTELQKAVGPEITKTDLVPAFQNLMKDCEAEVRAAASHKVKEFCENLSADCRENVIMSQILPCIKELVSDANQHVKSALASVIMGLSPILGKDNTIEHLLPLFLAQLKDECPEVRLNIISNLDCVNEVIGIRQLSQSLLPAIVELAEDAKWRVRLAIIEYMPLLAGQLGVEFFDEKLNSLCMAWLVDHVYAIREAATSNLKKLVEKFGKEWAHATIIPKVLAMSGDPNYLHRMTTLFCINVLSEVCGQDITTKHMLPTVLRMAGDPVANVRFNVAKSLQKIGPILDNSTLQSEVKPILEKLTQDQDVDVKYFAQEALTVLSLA
Procedure: PP2A (10-200 nM) and pNPP (5-10 mM, Sigma) were mixed into 96-well plate (Fisher Scientific Inc.) in 50 μL of the buffer required. Reactions were performed at room temperature, and fully stopped by adding equal volume of 0.1 M EDTA. Production of p-nitrophenol […] was quantified by absorbance of reaction mixtures at 405 nm using the VMax® microplate reader (Molecular Devices).

IC50 [1]: 10 to 100 µM | IC50 (PP2A): > 100 µM
Compound: CCCCCCCCCCCCCCCCCCCC(=O)NCCc1c[nH]c2ccc(O)cc12 [Compound I-63, N-(2-(5-hydroxy-1H-indol-3-yl)ethyl)icosanamide]
effect on non-fasted blood glucose levels (Ob/Ob Mice; heterozygous lean mice control): No effect | reduction in non-fasted blood glucose levels (Ob/Ob Mice; homozygous obese mice, compound in diet for 14 days): 26-30% | mean motor test scores less than mice on control diet (JNPL3 transgenic mice; after eleven weeks): 75% | protection from developing motor dysfunction (JNPL3 transgenic mice; after ten weeks): protection of JNPL3 transgenic mice from developing motor dysfunction | mean motor test scores less than mice on control diet (JNPL3 transgenic mice; after twelve weeks): 75%
